Each structure is given as a SMILES string. Some results are limits rather than exact numbers.

Assay [1] concerns OVCAR3 cells. Description: Detection of OVCAR3 cell proliferation activity by CTG method. The conditions noted are these: CellTiter-Glo, 7 days. Type of assay: cell-based. Summed up: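 OVCAR3 cells (2000/well) were exposed for 7 days to compound at 10 μM to 0.026 nM, 5-fold steps, in duplicate. Viability was read as CellTiter-Glo luminescence. A plate read on the day of compound addition served as the Max value for IC50 derivation.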
For orientation: ATP-based viability assays read luminescence as a measure of living cells.

Assay [2] deals with HT-29 cells. The experiment in a line: Detection of cell proliferation activity by CCK8 method (HT-29). Type of assay: cell-based, human. The settings on record: CCK8, 96 h. A digest of the protocol:
(§1)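 Cells seeded at 1500/well (BT-549, 1640 medium) or 2000/well (HT-29, HCT-116, McCoy's 5A), treated next day with 9-point 1:5 dilutions from 10 μM final, triplicate, for 96 h. CCK8 read at 450 nm after 2 h at 37 °C; inhibition versus DMSO, IC50 by non-linear regression.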

Assay [3] concerns BT-549 cells. The experiment in a line: Detection of cell proliferation activity by CCK8 method (BT-549). Type of assay: cell-based. The conditions noted are these: CCK8, 96 h. Summed up: as §1
Background: Tetrazolium dyes change colour on reduction, which living cells bring about.

For assay [4], the system named is HCT-116 cells. The experiment in a line: Detection of cell proliferation activity by CCK8 method (HCT-116). Type of assay: cell-based. The settings on record: CCK8, 96 h. A digest of the protocol: as §1
Assay [5] deals with HT-29 cells. Description: Mitotic index analysis, pH3 expression in HT-29 cells. Type of assay: cell-based, human. The settings on record: 24 h treatment. Summed up: (§2)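 HCT-116 or HT-29 cells treated 24 h with 9-point 3-fold dilutions from 10 μM, then fixed and immunostained for phospho-histone H3 with DRAQ5 counterstain. Near-infrared fluorescence read at 700/800 nm; pH3 expressed as % of DMSO control and EC50 fitted.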

Assay [6] deals with HCT-116 cells. The experiment in a line: Mitotic index analysis, pH3 expression in HCT-116 cells. The conditions noted are these: 24 h treatment. Type of assay: cell-based. Summed up:
as §2

The test system of assay [7] is OVCAR3 cells. Description: Detection of cell proliferation activity by CCK8 method (OVCAR3). It is filed as cell-based. Summed up: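 OVCAR3 tumor cells in log-phase growth were trypsinized, counted and plated at 180 μL per well in 96-well plates, with PBS in the outer wells. The following day, compounds were added in 9 concentrations (1:5 dilutions starting at 10 μM final) in triplicate alongside DMSO controls. After 96 h, medium was swapped for 100 μL medium containing 10% CCK8. Plates were incubated 2 h at 37° C and read at 450 nm. Background-corrected inhibition relative to DMSO was fitted by non-linear regression in GraphPad Prism 7.0 to obtain IC50.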

Assay [8] concerns the target cytochrome oxidase P450 2D6 (Homo sapiens (Human), UniProt P10635). Description: Inhibition of cytochrome oxidase P450 2D6. The settings on record: liver microsomes, CYP2D6. Type of assay: in vitro ADME. On the technique in general: Microsomes from liver hold many membrane-bound enzymes, among them those of drug oxidation.
The mark [9] stands for this setting: Homo sapiens, OVCAR-3, CCK8, 96 h.

Chain of cytochrome oxidase P450 2D6 (P10635 whole entry): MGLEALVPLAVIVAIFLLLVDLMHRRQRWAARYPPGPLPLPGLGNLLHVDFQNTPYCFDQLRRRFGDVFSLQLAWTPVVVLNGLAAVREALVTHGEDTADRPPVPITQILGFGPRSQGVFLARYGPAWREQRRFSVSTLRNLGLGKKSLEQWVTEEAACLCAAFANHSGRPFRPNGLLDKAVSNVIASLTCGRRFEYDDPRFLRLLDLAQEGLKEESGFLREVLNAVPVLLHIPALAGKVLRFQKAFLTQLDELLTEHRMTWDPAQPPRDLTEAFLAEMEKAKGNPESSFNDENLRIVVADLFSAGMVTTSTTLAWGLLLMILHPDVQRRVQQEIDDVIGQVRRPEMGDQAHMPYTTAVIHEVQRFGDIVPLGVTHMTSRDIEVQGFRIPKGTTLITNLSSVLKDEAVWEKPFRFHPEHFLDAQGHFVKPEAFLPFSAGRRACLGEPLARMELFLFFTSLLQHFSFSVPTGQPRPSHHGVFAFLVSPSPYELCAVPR

On to `O=C(Nc1cc2ccsc2c(N2CCC(F)(F)CC2)n1)c1ccc(NS(=O)(=O)CCO)cc1N1CCC2(CC1)CC2` [Compound 15], for which the IC50 (commonly the concentration at which inhibition is half-maximal) in assay [1] (Homo sapiens, OVCAR-3, 168 h) was 24 nM; in assay [2] (Homo sapiens), 107 nM; in assay [3] (Homo sapiens) it was 86 nM; in assay [4] (Homo sapiens), greater than 10000 nM. Moreover, the EC50 (as a rule, the concentration needed to bring the measured effect to its halfway point) in assay [5] (Homo sapiens) is 82 nM; in assay [6] (Homo sapiens) it was greater than 10000 nM.

`Cc1cc(NC(=O)c2ccc(NS(=O)(=O)CCO)cc2N2CC3CCC(C3)C2)nc(N2CCC(F)(F)CC2)n1` [Compound 3]: the IC50 in assay [1] (Homo sapiens, OVCAR-3, 168 h) is 85 nM; in assay [7] (setting [9]), 145 nM; in assay [2] (Homo sapiens), 115 nM; in assay [3] (Homo sapiens), 145 nM; in assay [4] (Homo sapiens), greater than 10000 nM. For the same molecule, the figures for the EC50 in assay [5] (Homo sapiens) and in assay [6] (Homo sapiens) were 495 nM and greater than 10000 nM, respectively.

Turning to `O=C(Nc1cn2ncnc2c(N2CCC(F)(F)CC2)n1)c1ccc(NS(=O)(=O)CCO)cc1N1CCC2(CC1)CC2` [Compound 23], the IC50 in assay [1] (Homo sapiens, OVCAR-3, 168 h) was 6.4 nM; in assay [7] (setting [9]), 5.7 nM; in assay [2] (Homo sapiens), 22.5 nM; in assay [3] (Homo sapiens), 22.6 nM; in assay [4] (Homo sapiens), greater than 10000 nM. Besides, the EC50 in assay [5] (Homo sapiens) is 9.8 nM; in assay [6] (Homo sapiens), greater than 10000 nM.

For `O=C(Nc1cn2c(F)cnc2c(N2CCC(F)(F)CC2)n1)c1ccc(NS(=O)(=O)CCO)cc1N1CCC2(CC1)CC2` [Compound 34], the IC50 in assay [7] (setting [9]) was 10.6 nM; in assay [2] (Homo sapiens) it was 28.8 nM; in assay [3] (Homo sapiens), 33.3 nM; in assay [4] (Homo sapiens), greater than 10000 nM; in assay [8], greater than 10000 nM. Moreover, the EC50 in assay [5] (Homo sapiens) is 14.5 nM; in assay [6] (Homo sapiens) it was greater than 10000 nM.

On to `O=C(Nc1cn2cnnc2c(N2CCC(F)(F)CC2)n1)c1ccc(NS(=O)(=O)CCO)cc1N1CCC2(CC1)CC2` [Compound 24], for which the IC50 in assay [1] is 17.8 nM; in assay [7] (CCK8, 96 h), 12.3 nM; in assay [2], 142 nM; in assay [3] it was 52.8 nM; in assay [4], greater than 10000 nM. Further, the EC50 in assay [5] was 65.6 nM; in assay [6] it was greater than 10000 nM.

Consider `O=C(Nc1cn2ccnc2c(N2CCC(F)(F)CC2)n1)c1ccc(NS(=O)(=O)CCO)cc1N1CCC2(CC1)CC2` [Compound 8], for which the IC50 in assay [1] (Homo sapiens, OVCAR-3, 168 h) was 5.8 nM; in assay [7] (setting [9]), 7.2 nM; in assay [2] (Homo sapiens), 19 nM; in assay [3] (Homo sapiens), 7.2 nM; in assay [4] (Homo sapiens), greater than 10000 nM; in assay [8], greater than 10000 nM. The values for the concentration giving a half-maximal response (EC50) in assay [5] (Homo sapiens) and in assay [6] (Homo sapiens) were 6.4 nM and greater than 10000 nM, respectively.

In the case of `CS(=O)(=O)Nc1ccc(C(=O)Nc2cn3ccnc3c(N3CCC(F)(F)CC3)n2)c(N2CC3CCC(C3)C2)c1` [Compound 19], the concentration for half-maximal inhibition (IC50) in assay [7] (setting [9]) was 23.1 nM; in assay [2] (Homo sapiens), 44 nM; in assay [3] (Homo sapiens), 69.6 nM; in assay [4] (Homo sapiens), greater than 10000 nM; in assay [8] it was greater than 10000 nM. Also, the EC50 in assay [5] (Homo sapiens) is 34 nM; in assay [6] (Homo sapiens), greater than 10000 nM.

In the case of `O=C(Nc1cc2cccnc2c(N2CCC(F)(F)CC2)n1)c1ccc(NS(=O)(=O)CCO)cc1N1CCC2(CC1)CC2` [Compound 21], the IC50 was 3.4 nM in assay [7] (setting [9]); 5.1 nM in assay [2] (Homo sapiens); 8.2 nM in assay [3] (Homo sapiens); greater than 10000 nM in assay [4] (Homo sapiens); greater than 10000 nM in assay [8]. The EC50 in assay [5] (Homo sapiens) is 6 nM; in assay [6] (Homo sapiens), greater than 10000 nM.

As for `O=C(Nc1cc2c(c(N3CCC(F)(F)CC3)n1)COC2)c1ccc(NS(=O)(=O)CCO)cc1N1CCC2(CC1)CC2` [Compound 14], the 50% inhibitory concentration (IC50) was 5.6 nM in assay [1] (Homo sapiens, OVCAR-3, 168 h); 30 nM in assay [2] (Homo sapiens); 25 nM in assay [3] (Homo sapiens); greater than 10000 nM in assay [4] (Homo sapiens). Moreover, the figures for the EC50 in assay [5] (Homo sapiens) and in assay [6] (Homo sapiens) were 22 nM and greater than 10000 nM, respectively.

With `O=C(Nc1cc2ccccc2c(N2CCC(F)(F)CC2)n1)c1ccc(NS(=O)(=O)CCO)cc1N1CCC2(CC1)CC2` [Compound 6], the IC50 in assay [1] (Homo sapiens, OVCAR-3, 168 h) is 118 nM; in assay [7] (setting [9]) it was 57 nM; in assay [2] (Homo sapiens), 144 nM; in assay [3] (Homo sapiens) it was 146 nM; in assay [4] (Homo sapiens) it was greater than 10000 nM; in assay [8], greater than 10000 nM. Besides, the EC50 in assay [5] (Homo sapiens) was 175 nM; in assay [6] (Homo sapiens) it was greater than 10000 nM.

As for `CS(=O)(=O)Nc1ccc(C(=O)Nc2cn3ccnc3c(N3CCC(F)(F)CC3)n2)c(N2CCC3(CC2)CC3)c1` [Compound 10], the IC50 in assay [1] (Homo sapiens, OVCAR-3, 168 h) was 16 nM; in assay [2] (Homo sapiens) it was 61 nM; in assay [3] (Homo sapiens), 52 nM; in assay [4] (Homo sapiens), greater than 10000 nM. The EC50 in assay [5] (Homo sapiens) was 183 nM; in assay [6] (Homo sapiens) it was greater than 10000 nM.

For the molecule `O=C(Nc1cc2cc[nH]c2c(N2CCC(F)(F)CC2)n1)c1ccc(NS(=O)(=O)CCO)cc1N1CCC2(CC1)CC2` [Compound 22], the IC50 in assay [1] (Homo sapiens, OVCAR-3, 168 h) is 11.2 nM; in assay [7] (setting [9]), 3.4 nM; in assay [2] (Homo sapiens), 20.6 nM; in assay [3] (Homo sapiens), 22.1 nM; in assay [4] (Homo sapiens), greater than 10000 nM. Besides, the figures for the EC50 in assay [5] (Homo sapiens) and in assay [6] (Homo sapiens) were 8.9 nM and greater than 10000 nM, respectively.

Regarding `CS(=O)(=O)Nc1ccc(C(=O)Nc2cc3cc[nH]c3c(N3CCC(F)(F)CC3)n2)c(N2CCC3(CC2)CC3)c1` [Compound 47], the half-maximal inhibitory concentration (IC50) in assay [7] (setting [9]) is 8 nM; in assay [2] (Homo sapiens), 10.5 nM; in assay [3] (Homo sapiens) it was 18.9 nM; in assay [4] (Homo sapiens) it was greater than 10000 nM; in assay [8], 2240 nM. Further, the results for the EC50 in assay [5] (Homo sapiens) and in assay [6] (Homo sapiens) were 6.4 nM and greater than 10000 nM, respectively.

For the molecule `O=C(Nc1cn2ccnc2c(N2CCC(F)(F)CC2)n1)c1ccc(NS(=O)(=O)CCO)cc1N1CC2CCC(C2)C1` [Compound 17], the IC50 in assay [1] (Homo sapiens, OVCAR-3, 168 h) is 6.3 nM; in assay [2] (Homo sapiens) it was 27 nM; in assay [3] (Homo sapiens), 33 nM; in assay [4] (Homo sapiens), greater than 10000 nM. The values for the EC50 in assay [5] (Homo sapiens) and in assay [6] (Homo sapiens) were 57 nM and greater than 10000 nM, respectively.

The values are drawn from patent US20250382298A1, “NITROGEN-CONTAINING COMPOUND AND USE THEREOF” (SUZHOU GENHOUSE BIO CO., LTD., priority 2022, published 2025).
